# Assay results as given in patent publication US12378220B2, “WNT signaling pathway inhibitors for treatments of disease” (University of Maryland, Baltimore, priority 2016, dated 2025).
# Like-named read-outs stand apart in the source and are kept apart here.
# System: Wnt/β-catenin pathway
# Assay: dual-luciferase TCF/LEF reporter assay, LiCl-activated, HEK293 cells
# Format: cell-based
# Conditions: Homo sapiens; for activity at 1 µM: HEK293, 24 h, At 1 μM concentration, remaining Wnt signaling activity, read-out: RLU % (Relative Light Units in reporter gene assays); for IC50: HEK293, read-out: IC50
# Protocol: Lithium chloride (LiCl), which has been previously established as an activator of the Wnt/β-catenin pathway through its direct and indirect effects on GSK3β was used for pathway activation. The inhibition of the Wnt/β-catenin pathway by a compound may be determined after its incubation with cells for 24 hours.
# The assay provided herein is a dual-luciferase assay to measure Wnt/β-catenin pathway activation using a TCF/LEF responsive reporter construct similar to that described previously (Thorne et al., 2010).
Structure (SMILES),activity at 1 µM [%],"IC50 (Table 3, values in nM) [nM]","IC50 (Table 3, values in μM) [nM]"
"Cc1ccc(-n2c(C)cc(C(=O)Nc3nc(-c4ccccc4)cs3)c2C)cc1 [YW1114, 2,5-Dimethyl-N-(4-phenylthiazol-2-yl)-1-(p-tolyl)-1H-pyrrole-3-carboxamide]",34.6,379,
"Cc1ccc(-n2c(C)cc(C(=O)Nc3cnccn3)c2C)cc1 [YW1117-2, 2,5-Dimethyl-N-(pyrazin-2-yl)-1-(p-tolyl)-1H-pyrrole-3-carboxamide]",113,,
"Cc1ccc(-n2nnc(C(=O)Nc3ccccn3)c2C)cc1 [YW1119, 5-Methyl-N-(pyridin-2-yl)-1-(p-tolyl)-1H-1,2,3-triazole-4-carboxamide]",106,,
"Cc1ccc(-n2nnc(C(=O)NCc3ccccn3)c2C)cc1 [YW1121, 5-Methyl-N-(pyridin-2-ylmethyl)-1-(p-tolyl)-1H-1,2,3-triazole-4-carboxamide]",92.1,,
"Cc1ccc(-n2nnc(C(=O)Nc3ccc4c(=O)cc(C)oc4c3)c2C)cc1 [YW1123, 5-Methyl-N-(2-methyl-4-oxo-4H-chromen-7-yl)-1-(p-tolyl)-1H-1,2,3-triazole-4-carboxamide]",87.6,,
"Cc1ccc(-n2nnc(C(=O)Nc3cc(C)no3)c2C)cc1 [YW1124, 5-Methyl-N-(3-methylisoxazol-5-yl)-1-(p-tolyl)-1H-1,2,3-triazole-4-carboxamide]",121,,48000
"Cc1ccc(-n2nnc(C(=O)Nc3nc(-c4ccccc4)c(-c4ccccc4)s3)c2C)cc1 [YW1125, N-(4,5-diphenylthiazol-2-yl)-5-methyl-1-(p-tolyl)-1H-1,2,3-triazole-4-carboxamide]",55.1,,
"Cc1ccc(-n2nnc(C(=O)Nc3ccc4ccccc4n3)c2C)cc1 [YW1127, 5-Methyl-N-(quinolin-2-yl)-1-(p-tolyl)-1H-1,2,3-triazole-4-carboxamide]",56.4,,
"Cc1ccccc1-n1nnc(C(=O)Nc2ccc3ccccc3c2)c1C [YW1130, 5-Methyl-N-(naphthalen-2-yl)-1-(o-tolyl)-1H-1,2,3-triazole-4-carboxamide]",19.7,471,
"Cc1ccccc1-n1nnc(C(=O)Nc2nc3ccccc3s2)c1C [YW1132, N-(benzo[d]thiazol-2-yl)-5-methyl-1-(o-tolyl)-1H-1,2,3-triazole-4-carboxamide]",4.9,34,
"Cc1ccc(-n2nnc(C(=O)Nc3cccc(C)n3)c2C)cc1 [YW1134, 5-Methyl-N-(6-methylpyridin-2-yl)-1-(p-tolyl)-1H-1,2,3-triazole-4-carboxamide]",79.5,273,
"Cc1c(C(=O)Nc2ccc3ccccc3n2)nnn1-c1cccc2ccccc12 [YW1151, 5-Methyl-1-(naphthalen-1-yl)-N-(quinolin-2-yl)-1H-1,2,3-triazole-4-carboxamide]",79.3,,4000
"Cc1c(C(=O)Nc2ccc3ccccc3n2)nnn1-c1ccccc1N1CCOCC1 [YW1155, 5-Methyl-1-(2-morpholinophenyl)-N-(quinolin-2-yl)-1H-1,2,3-triazole-4-carboxamide]",99.8,,
"Cc1c(C(=O)Nc2ccc3ccccc3n2)nnn1-c1ccccc1C#N [YW1157, 1-(2-Cyanophenyl)-5-methyl-N-(quinolin-2-yl)-1H-1,2,3-triazole-4-carboxamide]",6.5,76,
"Cc1c(C(=O)Nc2ccc3ccccc3n2)nnn1-c1ccccc1F [YW1159, 1-(2-Fluorophenyl)-5-methyl-N-(quinolin-2-yl)-1H-1,2,3-triazole-4-carboxamide]",1.4,6.5,
"Cc1c(C(=O)Nc2ccc3ccccc3n2)nnn1-c1ccccc1Br [YW1169, 1-(2-Bromophenyl)-5-methyl-N-(quinolin-2-yl)-1H-1,2,3-triazole-4-carboxamide]",3.2,10,
"Cc1cccc(-n2nnc(C(=O)Nc3ccc4ccccc4n3)c2C)c1C [YW1170, 1-(2,3-Dimethylphenyl)-5-methyl-N-(quinolin-2-yl)-1H-1,2,3-triazole-4-carboxamide]",17.8,567,
